Measured values published in publication PMC9090415, “Discovery of small molecule inhibitors of Plasmodium falciparum apicoplast DNA polymerase” (Journal of Enzyme Inhibition and Medicinal Chemistry, 2022).

Target: P. falciparum apicoplast DNA polymerase (Pf-apPOL) (Plasmodium falciparum, UniProt Q8ILY1)
Experiment: Fluorescence-based high-throughput DNA polymerase assay (molecular beacon), primary screen and dose-response;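 on % inhibition ApPOL 90': test concentration in µM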;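 on % inhibition apPOL 180': test concentration in µM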
Assay type: biochemical
Conditions: for DNA Pol: 90 min, 10 µM; for IC50: supplemental file 2, sheet IC50 nontoxic compounds, Pf-apPOL
Procedure, shortened: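 Single-point screening used 10 µM compound with 20 nM polymerase, 20 nM hairpin substrate and 6 µM dNTPs for 90 min at 25 °C. Confirmatory titrations (2.5–80 µM) followed fluorescence at three times, and IC50 was derived from a fit including a cooperativity term n.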

[1] = 'DNA Pol' of the 186 hits list (screen value)
[2] = primary screen value, "DNA Pol"

Sequence of P. falciparum apicoplast DNA polymerase (Pf-apPOL) (Q8ILY1 entry or part of it): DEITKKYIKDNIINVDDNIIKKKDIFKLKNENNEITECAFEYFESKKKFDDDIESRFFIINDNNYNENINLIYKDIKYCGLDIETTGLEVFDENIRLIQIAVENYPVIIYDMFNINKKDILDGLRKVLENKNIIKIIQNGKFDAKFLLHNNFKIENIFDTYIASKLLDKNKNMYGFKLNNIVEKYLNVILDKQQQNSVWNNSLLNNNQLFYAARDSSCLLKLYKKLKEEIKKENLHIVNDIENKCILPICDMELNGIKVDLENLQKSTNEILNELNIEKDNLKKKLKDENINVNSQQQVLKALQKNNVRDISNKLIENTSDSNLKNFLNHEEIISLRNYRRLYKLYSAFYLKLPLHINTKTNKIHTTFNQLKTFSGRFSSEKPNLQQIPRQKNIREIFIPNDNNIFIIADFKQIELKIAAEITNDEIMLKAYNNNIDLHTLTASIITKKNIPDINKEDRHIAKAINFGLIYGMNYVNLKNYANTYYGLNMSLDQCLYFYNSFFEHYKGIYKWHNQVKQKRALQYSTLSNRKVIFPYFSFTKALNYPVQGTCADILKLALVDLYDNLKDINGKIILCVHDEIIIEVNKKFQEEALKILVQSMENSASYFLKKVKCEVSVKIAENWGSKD

SMILES: O=C1NN(c2ccc(Cl)c(Cl)c2)C(=O)/C1=C/c1ccc(-c2ccc3c(c2)C(=O)OC3)o1 [Molecule 90, O=C1NN(C(=O)/C/1=C/c1ccc(o1)c1ccc2c(c1)C(=O)OC2)c1ccc(c(c1)Cl)Cl]
- DNA Pol [1]: 51
- % inhibition Apo pol 10' (DRC-1, conc 2.5): 36.4105%
- % inhibition Apo pol 10' (DRC-1, conc 5): 68.8597%
- % inhibition Apo pol 10' (DRC-1, conc 10): 88.9603%
- % inhibition Apo pol 10' (DRC-1, conc 20): 93.857%
- % inhibition Apo pol 10' (DRC-1, conc 40): 90.5867%
- % inhibition Apo pol 10' (DRC-1, conc 80): 96.7456%
- % inhibition Apol 90' (DRC-1, 90', conc 2.5): 24.0232%
- % inhibition Apol 90' (DRC-1, 90', conc 5): 57.3373%
- % inhibition Apol 90' (DRC-1, 90', conc 10): 84.2476%
- % inhibition Apol 90' (DRC-1, 90', conc 20): 92.6423%
- % inhibition Apol 90' (DRC-1, 90', conc 40): 85.5188%
- % inhibition Apol 90' (DRC-1, 90', conc 80): 95.1265%
- % inhibition apPOL 180' (DRC-1, 180', conc 2.5): 13.8146%
- % inhibition apPOL 180' (DRC-1, 180', conc 5): 43.9311%
- % inhibition apPOL 180' (DRC-1, 180', conc 10): 78.9656%
- % inhibition apPOL 180' (DRC-1, 180', conc 20): 91.6394%
- % inhibition apPOL 180' (DRC-1, 180', conc 40): 79.8129%
- % inhibition apPOL 180' (DRC-1, 180', conc 80): 94.9011%
- % inhibition Apo pol 5' (DRC-2, conc 2.5): 31%
- % inhibition Apo pol 5' (DRC-2, conc 5): 10%
- % inhibition Apo pol 5' (DRC-2, conc 10): 34%
- % inhibition Apo pol 5' (DRC-2, conc 20): 38%
- % inhibition Apo pol 5' (DRC-2, conc 40): 61%
- % inhibition Apo pol 5' (DRC-2, conc 80): 63%
- % inhibition Apo pol 5' (DRC-2, concentration 5): 10%
- % inhibition Apo pol 5' (DRC-2, concentration 10): 34%
- % inhibition Apo pol 5' (DRC-2, concentration 80): 63%
- % inhibition Apol 40' (DRC-2, 40', conc 2.5): 33%
- % inhibition Apol 40' (DRC-2, 40', conc 5): 10%
- % inhibition Apol 40' (DRC-2, 40', conc 10): 37%
- % inhibition Apol 40' (DRC-2, 40', conc 20): 42%
- % inhibition Apol 40' (DRC-2, 40', conc 40): 68%
- % inhibition Apol 40' (DRC-2, 40', conc 80): 79%
- % inhibition Apol 40' (DRC-2, 40', concentration 5): 10%
- % inhibition ApPOL 90' (DRC-2, 90', conc 2.5): 30%
- % inhibition ApPOL 90' (DRC-2, 90', conc 5): 9%
- % inhibition ApPOL 90' (DRC-2, 90', conc 10): 35%
- % inhibition ApPOL 90' (DRC-2, 90', conc 20): 40%
- % inhibition ApPOL 90' (DRC-2, 90', conc 40): 67%
- % inhibition ApPOL 90' (DRC-2, 90', conc 80): 82%
- % inhibition apPOL 180' (DRC-2, 180', conc 2.5): 24%
- % inhibition apPOL 180' (DRC-2, 180', conc 5): 6%
- % inhibition apPOL 180' (DRC-2, 180', conc 10): 29%
- % inhibition apPOL 180' (DRC-2, 180', conc 20): 34%
- % inhibition apPOL 180' (DRC-2, 180', conc 40): 63%
- % inhibition apPOL 180' (DRC-2, 180', conc 80): 83%
- % inhibition apPOL 180' (DRC-2, 180', concentration 20): 34%
- % inhibition apPOL 180' (DRC-2, 180', concentration 40): 63%
- DNA Pol [2]: 51

SMILES: O=C(Cn1ccc2c(=O)[nH]ccc21)Nc1cccc(Cl)c1 [Molecule 23, O=C(Cn1ccc2c1cc[nH]c2=O)Nc1cccc(c1)Cl]
- % inhibition Apo pol 10' (DRC-1, concentration 2.5): 1.228%
- % inhibition Apo pol 10' (DRC-1, concentration 5): 14.8384%
- % inhibition Apo pol 10' (DRC-1, concentration 10): 62.4441%
- % inhibition Apo pol 10' (DRC-1, concentration 20): 81.0439%
- % inhibition Apo pol 10' (DRC-1, concentration 40): 80.7703%
- % inhibition Apo pol 10' (DRC-1, concentration 80): 68.5193%
- % inhibition Apol 90' (DRC-1, 90', concentration 2.5): -3.118%
- % inhibition Apol 90' (DRC-1, 90', concentration 5): 4.6922%
- % inhibition Apol 90' (DRC-1, 90', concentration 10): 48.8063%
- % inhibition Apol 90' (DRC-1, 90', concentration 20): 74.6886%
- % inhibition Apol 90' (DRC-1, 90', concentration 40): 82.985%
- % inhibition Apol 90' (DRC-1, 90', concentration 80): 79.3379%
- % inhibition apPOL 180' (DRC-1, 180', concentration 2.5): -7.139%
- % inhibition apPOL 180' (DRC-1, 180', concentration 5): -3.837%
- % inhibition apPOL 180' (DRC-1, 180', concentration 10): 31.8886%
- % inhibition apPOL 180' (DRC-1, 180', concentration 20): 62.9592%
- % inhibition apPOL 180' (DRC-1, 180', concentration 40): 80.4785%
- % inhibition apPOL 180' (DRC-1, 180', concentration 80): 82.7611%
- % inhibition Apol 40' (DRC-2, 40', concentration 10 (unit not given)): 63%
- % inhibition Apol 40' (DRC-2, 40', concentration 20 (unit not given)): 65%
- % inhibition ApPOL 90' (DRC-2, 90', concentration 10 (unit not given)): 63%
- % inhibition ApPOL 90' (DRC-2, 90', concentration 80 (unit not given)): 57%
- % inhibition apPOL 180' (DRC-2, 180', concentration 10 (unit not given)): 57%
- % inhibition apPOL 180' (DRC-2, 180', concentration 80 (unit not given)): 65%
- % inhibition Apo pol 5' (DRC-2, concentration 2.5): 7%
- % inhibition Apo pol 5' (DRC-2, concentration 5): 28%
- % inhibition Apo pol 5' (DRC-2, concentration 10): 46%
- % inhibition Apo pol 5' (DRC-2, concentration 20): 43%
- % inhibition Apo pol 5' (DRC-2, concentration 40): 34%
- % inhibition Apo pol 5' (DRC-2, concentration 80): 19%
- % inhibition Apol 40' (DRC-2, 40', concentration 2.5): 6%
- % inhibition Apol 40' (DRC-2, 40', concentration 5): 35%
- % inhibition Apol 40' (DRC-2, 40', concentration 10): 63%
- % inhibition Apol 40' (DRC-2, 40', concentration 20): 65%
- % inhibition Apol 40' (DRC-2, 40', concentration 40): 60%
- % inhibition Apol 40' (DRC-2, 40', concentration 80): 49%
- % inhibition ApPOL 90' (DRC-2, 90', concentration 2.5): 3%
- % inhibition ApPOL 90' (DRC-2, 90', concentration 5): 31%
- % inhibition ApPOL 90' (DRC-2, 90', concentration 10): 63%
- % inhibition ApPOL 90' (DRC-2, 90', concentration 20): 69%
- % inhibition ApPOL 90' (DRC-2, 90', concentration 40): 67%
- % inhibition ApPOL 90' (DRC-2, 90', concentration 80): 57%
- % inhibition apPOL 180' (DRC-2, 180', concentration 2.5): -5%
- % inhibition apPOL 180' (DRC-2, 180', concentration 5): 18%
- % inhibition apPOL 180' (DRC-2, 180', concentration 10): 57%
- % inhibition apPOL 180' (DRC-2, 180', concentration 20): 71%
- % inhibition apPOL 180' (DRC-2, 180', concentration 40): 72%
- % inhibition apPOL 180' (DRC-2, 180', concentration 80): 65%
- DNA Pol (primary screen value of the 186 hits, unit not given): 79
- DNA Pol (primary screen value, head "DNA Pol", unit not given): 79

SMILES: COc1cccc(C(=O)N2CCc3c(nc4cc(-c5ccccc5)[nH]n4c3=O)C2)c1OC [Molecule 22]
- IC50: 7.31 µM

SMILES: Cc1ccc(-n2nnc(C(=O)O)c2-c2ccccn2)c(F)c1 [Molecule 54]
- IC50: 14.5 µM

SMILES: CC(C)CCNC(=O)c1cnn2c(O)cc(CSc3ccc(Cl)cc3)nc12 [Molecule 101, CC(CCNC(=O)c1cnn2c1nc(CSc1ccc(cc1)Cl)cc2O)C]
- DNA Pol [1]: 47
- % inhibition Apo pol 10' (DRC-1, conc 2.5): 0.1018%
- % inhibition Apo pol 10' (DRC-1, conc 5): 10.5875%
- % inhibition Apo pol 10' (DRC-1, conc 10): 55.0331%
- % inhibition Apo pol 10' (DRC-1, conc 20): 79.7694%
- % inhibition Apo pol 10' (DRC-1, conc 40): 93.5546%
- % inhibition Apo pol 10' (DRC-1, conc 80): 97.7054%
- % inhibition Apol 90' (DRC-1, 90', conc 2.5): -5.869%
- % inhibition Apol 90' (DRC-1, 90', conc 5): 6.076%
- % inhibition Apol 90' (DRC-1, 90', conc 10): 52.4114%
- % inhibition Apol 90' (DRC-1, 90', conc 20): 78.3109%
- % inhibition Apol 90' (DRC-1, 90', conc 40): 89.1904%
- % inhibition Apol 90' (DRC-1, 90', conc 80): 96.2635%
- % inhibition apPOL 180' (DRC-1, 180', conc 2.5): -11.3834%
- % inhibition apPOL 180' (DRC-1, 180', conc 5): -2.604%
- % inhibition apPOL 180' (DRC-1, 180', conc 10): 39.1813%
- % inhibition apPOL 180' (DRC-1, 180', conc 20): 71.0945%
- % inhibition apPOL 180' (DRC-1, 180', conc 40): 85.4085%
- % inhibition apPOL 180' (DRC-1, 180', conc 80): 94.6304%
- % inhibition Apo pol 5' (DRC-2, conc 2.5): -1.9%
- % inhibition Apo pol 5' (DRC-2, conc 5): 20%
- % inhibition Apo pol 5' (DRC-2, conc 10): 55%
- % inhibition Apo pol 5' (DRC-2, conc 20): 59%
- % inhibition Apo pol 5' (DRC-2, conc 40): 66%
- % inhibition Apo pol 5' (DRC-2, conc 80): 69%
- % inhibition Apo pol 5' (DRC-2, concentration 40): 66%
- % inhibition Apo pol 5' (DRC-2, concentration 80): 69%
- % inhibition Apol 40' (DRC-2, 40', conc 2.5): -1.08%
- % inhibition Apol 40' (DRC-2, 40', conc 5): 24%
- % inhibition Apol 40' (DRC-2, 40', conc 10): 65%
- % inhibition Apol 40' (DRC-2, 40', conc 20): 69%
- % inhibition Apol 40' (DRC-2, 40', conc 40): 76%
- % inhibition Apol 40' (DRC-2, 40', conc 80): 81%
- % inhibition Apol 40' (DRC-2, 40', concentration 20): 69%
- % inhibition ApPOL 90' (DRC-2, 90', conc 2.5): -2.68%
- % inhibition ApPOL 90' (DRC-2, 90', conc 5): 22%
- % inhibition ApPOL 90' (DRC-2, 90', conc 10): 66%
- % inhibition ApPOL 90' (DRC-2, 90', conc 20): 70%
- % inhibition ApPOL 90' (DRC-2, 90', conc 40): 77%
- % inhibition ApPOL 90' (DRC-2, 90', conc 80): 83%
- % inhibition ApPOL 90' (DRC-2, 90', concentration 10): 66%
- % inhibition apPOL 180' (DRC-2, 180', conc 2.5): -4.21%
- % inhibition apPOL 180' (DRC-2, 180', conc 5): 16%
- % inhibition apPOL 180' (DRC-2, 180', conc 10): 60%
- % inhibition apPOL 180' (DRC-2, 180', conc 20): 66%
- % inhibition apPOL 180' (DRC-2, 180', conc 40): 75%
- % inhibition apPOL 180' (DRC-2, 180', conc 80): 85%
- % inhibition apPOL 180' (DRC-2, 180', concentration 20): 66%
- DNA Pol [2]: 47

SMILES: COc1ccc2c(c1)C(c1ccccc1OC)CC(=O)O2 (stereo not drawn) [Molecule 38]
- IC50: 11.2 µM

SMILES: COc1cccc(Oc2c(C(F)(F)F)oc3cc(OC(=O)N(C)C)ccc3c2=O)c1 [Molecule 52]
- IC50: 40.6 µM

SMILES: CC(C)CCNC(=O)c1cnn2c(O)cc(CSc3ccc(Cl)cc3)nc12 [Molecule 101]
- IC50: 9.74 µM

SMILES: COc1ccc(C(=O)N2CCc3c(nc4cc(-c5ccccc5Cl)[nH]n4c3=O)C2)cn1 [Molecule 26]
- IC50: 9.65 µM

SMILES: Cn1nc(-c2nc(-c3ccccc3)no2)c2c1CCN(C(=O)Cc1cccs1)C2 [Molecule 58]
- IC50: 18.5 µM
